Results reported in patent US4097591A, “N^2 -arylsulfonyl-L-argininamides and the pharmaceutically acceptable salts thereof” (Mitsubishi Chemical Industries Limited, priority 1977, dated 1978).

These molecules were tested against T1, thrombin (Bos taurus, UniProt P00735) (assay: fibrinogen coagulation time (prolongation by a factor of two)). Details: pH 7.4, TABLE 2 (Sample Nos. 1-14, own numbering); bovine fibrinogen, thrombin 5 units/ml, pH 7.4, 25° C; read-out: Concentration required to prolong the coagulation time by a factor of two.
T1 construct: clotting of bovine fibrinogen
Format: biochemical
Procedure: The measurement of the fibrinogen coagulation time was conducted as follows:
Immediately after mixing, the reaction mixture was transferred from the ice bath to a bath maintained at 25° C. Coagulation times were taken as the period between the time of transference to the 25° C bath and the time of the first appearance of fibrin threads. […] The term "concentration required to prolong the coagulation time by a factor of two" is the concentration of an active ingredient required to prolong the normal coagulation time 50-55 seconds to 100-110 seconds.

| IC (2-fold clotting time) | SMILES |
| --- | --- |
| 38 µM | CCCCN(CC(=O)O)C(=O)[C@H](CCCNC(=N)N)NS(=O)(=O)c1ccc(OC)c(Cc2ccccc2)c1 [compound 2] |
| 5 µM | CCCCN(CC(=O)O)C(=O)[C@H](CCCNC(=N)N)NS(=O)(=O)c1ccc(OC)c(C2CCCCC2)c1 [compound 3, N^2-(3-cyclohexyl-4-methoxyphenylsulfonyl)-L-arginyl-N-butylglycine] |

Same assay, conditions: pH 7.4, first table (Sample Nos. 1-235); bovine fibrinogen, thrombin 5 units/ml, pH 7.4, 25° C; read-out: Concentration required to prolong the coagulation time by a factor of two

| IC (2-fold clotting time) | SMILES |
| --- | --- |
| 2.5 µM | COCCN(CCC(=O)O)C(=O)[C@H](CCCNC(=N)N)NS(=O)(=O)c1ccc2cc(OC)c(OC)cc2c1 [compound 15] |
| 2.5 µM | COc1cc2ccc(S(=O)(=O)N[C@@H](CCCNC(=N)N)C(=O)N(CC(=O)O)Cc3ccccc3)cc2cc1OC [compound 50] |
| 0.1 µM | Cc1ccc2ccc(S(=O)(=O)N[C@@H](CCCNC(=N)N)C(=O)N3CCC(C(C)C)CC3C(=O)O)cc2c1 (stereo partly drawn) [compound 175] |
| 2 µM | COc1ccc2ccc(S(=O)(=O)N[C@@H](CCCNC(=N)N)C(=O)N3CCOCC3C(=O)O)cc2c1 (stereo partly drawn) [compound 189] |
